5 compounds from publication PMC4879574, “Identification of Leishmania donovani Topoisomerase 1 inhibitors via intuitive scaffold hopping and bioisosteric modification of known Top 1 inhibitors” (Scientific Reports, 2016) can be followed below.

Values joined by “and” are separate entries in the source; they are usually repeats but may differ in a detail not shown here. Identical values can stand only once. Like-named read-outs stand apart in the source and are kept apart here.

The test system of assay [1] is L. donovani AG83 promastigotes. In words: MTT assay on extracellular promastigotes. Type of assay: cell-based. To be noted: Leishmania donovani, 12 h, read-out: Anti-promastigote activity IC50. The protocol: Next, compound 4 was screened against extracellular promastigotes.
L. donovani AG83 promastigotes (3.0 × 10^6 cells/ml) are incubated with different concentrations of drugs/compounds under study (1, 2, 5, 10 and 20 μM) for 12 h, following which the survival percentage is estimated by MTT assay. Yellow MTT (3-(4,5-dimethylthiazol- 2-yl)-2,5-diphenyltetrazolium bromide, a tetrazole) is reduced to purple formazan in the mitochondria of living cells. The formazan is then solubilized, and the concentration is determined by optical density at 570 nm. Metabolically active cells convert MTT to formazan, thereby generating a quantitative measure of viability and cytotoxicity. Percentage of viable promastigotes in each treatment groups are determined with respect to untreated control cells.
On the technique in general: Tetrazolium dyes change colour on reduction, which living cells bring about.

The target in assay [2] is Leishmania donovani Topoisomerase 1 (LdTop1) (Leishmania donovani, UniProt A0A3Q8IHS4+Q8WQM6). In words: Plasmid DNA relaxation assay, LdTop1 (simultaneous incubation). Type of assay: biochemical. The procedure:
(§1) To investigate the inhibitory effect of our library compounds on the DNA relaxation activity of the recombinant Human and Leishmania topoisomerase 1 (Table 2), assays were performed involving supercoiled plasmid DNA, the enzymes (HTop1 and LdTop1) and our molecules. The enzymes were purified by the standard literature procedure.
All the experiments were conducted thrice and representative data from once set of them are expressed as mean ± SD.
(§2) The type I DNA topoisomerase are assayed by decreased mobility of the relaxed isomers of supercoiled pBS (SK^+) [pBlue-script (SK^+)] DNA in agarose gel. The relaxation assay was carried out as described previously with LdTop1B and HTop I, diluted in the relaxation buffer (25 mM Tris–HCl, pH 7.5, 5% glycerol, 0.5 mM DTT, 10 mM MgCl2, 50 mM KCl, […] and […] BSA) and supercoiled plasmid pBS (SK^+) DNA (85–95% were negatively supercoiled, with remainder being nicked circles)[9][28][29]. The reconstituted enzyme LdTop1B was assayed at 50 mM KCl concentration as described before. For all kinetic studies, the reaction mixtures containing the buffer and DNA were heated to 37 °C before addition of the enzymes. The reactions were rapidly quenched using stop solution and kept on ice. The gels were stained with ethidium bromide (EtBr) ([…]) and the amount of supercoiled monomer DNA band fluorescence were quantified by integration using Gel Doc 2000 under UV illumination (Bio-Rad Quantity One Software), as described previously.
Cells harvested from 1 litre of culture were separately lysed by lysozyme/sonication, and the proteins were purified through Ni-NTA (Ni^2+-nitriloacetate-agarose column (Qiagen, Hilden, Germany) followed by a phospho-cellulose column (P11 cellulose; Whatman, Maidstone Kent, UK) as described previously. Finally, the purified proteins LdTOP1L and LdTOP1S were stored at −70 °C. The concentrations of each protein were quantified by using Bradford Reagent (PIERCE, Thermo Fisher Scientific Inc., Rockford, USA). Purified LdTOP1L was mixed with purified LdTOP1S at a molar ratio of 1:1 to a total protein concentration of 0.5 mg/ml in reconstitution buffer [50 mM potassium phosphate, pH 7.5, 0.5 mM DTT, 1 mM EDTA, 0.1 mM PMSF and 10% (v/v) glycerol]. The mixture was dialyzed overnight at 4 °C and dialyzed fractions were used for plasmid relaxation activity.

For the next assay, the target named is T1, Human Top1 (HTop1) (Homo sapiens, UniProt P11387).
T1 construct: made in house; host or cells: Sf-9 insect cells infected with recombinant baculovirus (gift from Prof. J. J. Champoux)
T1 sequence (P11387 1-765): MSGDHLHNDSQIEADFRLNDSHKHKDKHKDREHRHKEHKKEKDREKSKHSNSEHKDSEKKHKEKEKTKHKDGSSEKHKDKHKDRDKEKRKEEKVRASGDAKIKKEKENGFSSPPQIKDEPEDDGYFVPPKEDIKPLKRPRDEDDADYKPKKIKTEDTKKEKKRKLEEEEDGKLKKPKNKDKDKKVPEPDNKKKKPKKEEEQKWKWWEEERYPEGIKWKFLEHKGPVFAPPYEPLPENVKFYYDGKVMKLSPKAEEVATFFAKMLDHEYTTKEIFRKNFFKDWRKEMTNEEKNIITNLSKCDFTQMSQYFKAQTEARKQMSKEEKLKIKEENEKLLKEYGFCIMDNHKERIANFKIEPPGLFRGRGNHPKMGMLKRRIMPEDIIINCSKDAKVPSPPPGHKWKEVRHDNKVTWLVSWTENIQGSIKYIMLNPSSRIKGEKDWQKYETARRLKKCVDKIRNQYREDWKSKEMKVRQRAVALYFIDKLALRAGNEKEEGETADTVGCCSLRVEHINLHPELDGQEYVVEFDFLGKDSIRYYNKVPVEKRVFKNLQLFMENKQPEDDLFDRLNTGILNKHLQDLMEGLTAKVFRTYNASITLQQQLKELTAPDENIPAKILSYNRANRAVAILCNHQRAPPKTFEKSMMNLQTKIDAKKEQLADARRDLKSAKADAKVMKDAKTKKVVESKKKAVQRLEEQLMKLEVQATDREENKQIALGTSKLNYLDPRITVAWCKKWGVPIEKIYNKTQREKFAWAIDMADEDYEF
In words: Plasmid DNA relaxation assay, HTop1. Particulars: averages of three experiments, read-out: HTop1 inhibition (EC50). Type of assay: biochemical. The protocol:
as §1, §2
The wild-type HTop1 (91 kDa) was purified from Sf-9 insect cells infected with the recombinant baculovirus (a kind gift from Prof. J. J. Champoux). Approximately, 1 * 10^9 Sf-9 cells were infected with the recombinant virus, and cells were harvested after 48-h of infection. The cells were lysed and enzyme was purified as described. Briefly, at 48 h post-infection, approximately 3 * 10^9 Sf-9 cells were harvested by centrifugation for 5 min at 400 * g. The cells were resuspended in 1 liter of ice-cold phosphate-buffered saline and centrifuged for 5 min at 400 * g. The nuclei were washed twice in 80 ml of lysis buffer minus Triton X-100 and resuspended in 40 ml of resuspension buffer (50 mM KCl, 10 mM Tris-Cl, pH 7.5, 2 mM MgCl2, 25 mM DTT, 0.4 mg/ml phenylmethylsulfonyl fluoride, 0.12 mg/ml aprotinin). The nuclear extract was stirred for 5 min at ~200 rpm. With continued stirring, 50 ml of polyethylene glycol (PEG) buffer (18% PEG 8000, 1 M NaCl, 10% glycerol) was added dropwise in order to precipitate the DNA. The PEG precipitate was pelleted by centrifugation and the resulting PEG supernatant was dialyzed against 4 liters of potassium phosphate buffer. The dialyzed PEG supernatant passed over a 10-ml bed volume of phosphocellulose (Whatman P11) equilibrated with PPB. The HTop1 flowed through the PS column and then passed over a Mono Q column followed by loaded onto a Mono S column. The Mono S column was eluted with a 25-ml 50–200 mM KPO4, pH 7.4, gradient. […] The peak Mono S fractions were pooled, concentrated with an Amicon ultrafiltration cell, dialyzed into storage buffer (50% glycerol, 10 mM Tris-hydrochloride, pH 7.5, 1 mM DTT, 1 mM EDTA), and stored at −20 °C.

The mark [3] stands for this setting: LdTop1 relaxation, 12.5 uM, read-out: % inhibition, mean data.
Where [4] appears, read: LdTop1 relaxation, 25 uM, read-out: % inhibition, mean data.
Where [5] appears, read: LdTop1 relaxation, 50 uM, read-out: % inhibition, mean data.
The mark [6] stands for this setting: LdTop1 relaxation, 100 uM, read-out: % inhibition, mean data.
Setting [7] is: plasmid DNA relaxation, averages of three experiments, read-out: LDTop1 inhibition (EC50).
The mark [8] stands for this setting: read-out: % inhibition (CPT 100%), data 1, LdTop1 relaxation, 12.5 uM.
Setting [9] is: read-out: % inhibition (CPT 100%), data 1, LdTop1 relaxation, 25 uM.
Where [10] appears, read: read-out: % inhibition (CPT 100%), data 1, LdTop1 relaxation, 50 uM.
The mark [11] stands for this setting: read-out: % inhibition (CPT 100%), data 1, LdTop1 relaxation, 100 uM.
Setting [12] is: read-out: % inhibition (CPT 100%), data 2, LdTop1 relaxation, 12.5 uM.
Where [13] appears, read: read-out: % inhibition (CPT 100%), data 2, LdTop1 relaxation, 25 uM.
Where [14] appears, read: read-out: % inhibition (CPT 100%), data 2, LdTop1 relaxation, 50 uM.
Setting [15] is: read-out: % inhibition (CPT 100%), data 2, LdTop1 relaxation, 100 uM.
The mark [16] stands for this setting: supplement sheet Ld Top 1 data, concentrations in uM, read-out: EC50 (LdTop1, supplement sheet).

Sequence of Leishmania donovani Topoisomerase 1 (LdTop1) (Q8WQM6 entry or part of it): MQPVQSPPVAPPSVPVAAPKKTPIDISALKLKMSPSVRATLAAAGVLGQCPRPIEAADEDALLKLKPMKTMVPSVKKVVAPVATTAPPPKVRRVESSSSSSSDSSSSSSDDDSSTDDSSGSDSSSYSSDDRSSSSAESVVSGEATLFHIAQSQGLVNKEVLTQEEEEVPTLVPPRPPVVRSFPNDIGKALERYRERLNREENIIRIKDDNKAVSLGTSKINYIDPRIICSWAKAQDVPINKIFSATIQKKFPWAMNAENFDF
Sequence of Leishmania donovani Topoisomerase 1 (LdTop1) (A0A3Q8IHS4 entry or part of it): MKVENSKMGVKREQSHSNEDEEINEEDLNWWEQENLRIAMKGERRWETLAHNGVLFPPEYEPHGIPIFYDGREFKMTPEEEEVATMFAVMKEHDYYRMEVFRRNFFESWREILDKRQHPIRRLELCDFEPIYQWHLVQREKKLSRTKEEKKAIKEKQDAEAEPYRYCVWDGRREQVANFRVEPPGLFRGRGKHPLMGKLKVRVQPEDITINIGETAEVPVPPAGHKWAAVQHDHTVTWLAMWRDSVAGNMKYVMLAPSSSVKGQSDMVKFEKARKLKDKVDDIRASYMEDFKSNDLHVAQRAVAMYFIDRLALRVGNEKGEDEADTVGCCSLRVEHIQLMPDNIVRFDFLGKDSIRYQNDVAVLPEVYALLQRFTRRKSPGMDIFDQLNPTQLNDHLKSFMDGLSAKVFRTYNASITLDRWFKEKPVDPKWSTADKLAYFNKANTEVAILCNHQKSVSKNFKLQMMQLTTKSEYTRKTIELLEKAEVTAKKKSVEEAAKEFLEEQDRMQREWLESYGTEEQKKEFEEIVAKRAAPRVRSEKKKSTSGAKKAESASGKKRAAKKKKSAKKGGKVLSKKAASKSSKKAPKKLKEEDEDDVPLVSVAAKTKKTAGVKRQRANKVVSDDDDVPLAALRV

For the compound `CCCCCCCCCCCCCCCCOP(=O)([O-])OCC[N+](C)(C)C` [miltefosine, reference compound], the IC50 (in general, the concentration that gives 50% inhibition) in assay [1] is approximately 1 µM.

With `COc1ccc(/C=C2\OC(=O)c3c2cc(C)[nH]c3=O)c(C)c1C` [Compound 2], the inhibition at 12.5 µM in assay [2] (setting [3]), in assay [2] (setting [8]) and in assay [2] (setting [12]) was 50.1% each time. Besides, the inhibition (in general, the drop in the measured response relative to a control, in per cent) at 25 µM in assay [2] (setting [4]) amounted to 65.2%; in assay [2] (setting [9]), 66.8%; in assay [2] (setting [13]), 63.7%. In addition, the figures for the inhibition at 50 µM in assay [2] (setting [5]), in assay [2] (setting [10]) and in assay [2] (setting [14]) were 85.1%, 85.8% and 84.4%, respectively. Besides, the inhibition at 100 µM in assay [2] (setting [6]) turned out to be 99.5%; in assay [2] (setting [11]), 100%; in assay [2] (setting [15]), 98.9%. In addition, the “LdTop1 inhibitory activity” value in assay [2] (plasmid DNA relaxation) is given as “considerable activity”. Also, the EC50 (usually the concentration at which the effect is half-maximal) in assay [2] (setting [7]) is 10 µM and 10.1 µM; in assay [2] (setting [16]) it was 10.2 µM; on Human Top1 (HTop1), more than 100 µM.

For `Cc1cc2c(c(=O)[nH]1)C(=O)O/C2=C\c1c[nH]c2ccccc12` [Compound 5], the “LdTop1 inhibitory activity” value in assay [2] (plasmid DNA relaxation) is given as “no inhibitory activity at all”. Moreover, the EC50 (in assay [2] (setting [7]); on Human Top1 (HTop1)) was more than 100 µM in each case.

For the compound `Cc1cc2c(c(=O)[nH]1)C(=O)O/C2=C\c1ccc(F)c(F)c1` [Compound 8], the “LdTop1 inhibitory activity” value in assay [2] (plasmid DNA relaxation) is “complete loss of activity”. In addition, the EC50 (in assay [2] (setting [7]); at Human Top1 (HTop1)) was more than 100 µM throughout.

For the compound `Cc1cc2c(c(=O)[nH]1)C(=O)O/C2=C\c1ccccc1C(F)(F)F` [Compound 3], the inhibition at 12.5 µM in assay [2] (setting [3]) is 52.5%; in assay [2] (setting [8]), 51.2%; in assay [2] (setting [12]), 53.7%. Moreover, the inhibition at 25 µM was found to be 67.3% in assay [2] (setting [4]), 68.8% in assay [2] (setting [9]) and 65.8% in assay [2] (setting [13]). The inhibition at 50 µM came to 87.5% in assay [2] (setting [5]), 88.7% in assay [2] (setting [10]) and 86.2% in assay [2] (setting [14]). Besides, the results for the inhibition at 100 µM in assay [2] (setting [6]), in assay [2] (setting [11]) and in assay [2] (setting [15]) were 91.3%, 93.7% and 88.9%, respectively. Also, in assay [2] (plasmid DNA relaxation), the “LdTop1 inhibitory activity” value was “considerable activity”. For the same compound, the concentration giving a half-maximal response (EC50) in assay [2] (setting [7]) was 9.06 ± 1.77 µM; in assay [2] (setting [16]) it was 9.06 µM; at Human Top1 (HTop1) it was more than 100 µM.
